Data as given in patent US4916135A, “N-heteroaryl-4-quinolinamines” (priority 1989, dated 1990).
Counter-ions that a name gives are not always drawn. Like-named read-outs stand apart in the source and are kept apart here.

What was measured:
[1] = test system: 2-phenyl-1,4-benzoquinone-induced writhing; experiment: 2-phenyl-1,4-benzoquinone-induced writhing (PQW) test in mice (analgesic activity); format: in vivo; conditions: for inhibition in vivo at 20 mg/kg: Mus musculus, sc, read-out: PQW Percent inhibition
Procedure: Compounds I of the present invention are useful as analgesic agents due to their ability to alleviate pain in mammals. […] Exptl. Biol. Med., 95, 729 (1957)].
The results of some of the compounds of this invention (expressed in terms of percent inhibition at 20 mg/kg, s.c.) are shown in Table 1 along with that of a prior art compound.

[2] = test system: Scopolamine Induced Memory Deficit; experiment: scopolamine-induced Dark Avoidance Assay; format: in vivo; conditions: s.c., mice, 24 hours
Procedure: In this assay mice are tested for their ability to remember an unpleasant stimulus for a period of 24 hours. A mouse is placed in a chamber that contains a dark compartment; a strong incandescent light drives it to the dark compartment, where an electric shock is administered through metal plates on the floor. The animal is removed from the testing apparatus and tested again, 24 hours later, for the ability to remember the electric shock.
If scopolamine, an anticholinergic that is known to cause memory impairment, is administered before an animal's initial exposure to the test chamber, the animal re-enters the dark compartment shortly after being placed in the test chamber 24 hours later. This effect of scopolamine is blocked by an active test compound, resulting in a greater interval before re-entry into the dark compartment.
The results for an active compound are expressed as the percent of a group of animals in which the effect of scopolamine is blocked, as manifested by an increased interval between being placed in the test chamber and re-entering the dark compartment.
Test results of scopolamine-induced Dark Avoidance Assay for representative compounds of this invention are presented in Table 2 along with that of a reference compound.

Row | Molecule | inhibition in vivo at 20 mg/kg ([1]; at 20 mg/kg, s.c., mice) [%] | other results
1 | CCCN(c1ccnc2cc(Cl)ccc12)n1cccc1C=O [1-[(7-Chloro-4-quinolinyl)propylamino]-1H-pyrrole-2-carboxaldehyde] | 31 | 
2 | CCCN(c1ccnc2cc(Cl)ccc12)n1ccc(C=O)c1 [1-[(7-Chloro-4-quinolinyl)propylamino]-1H-pyrrole-3-carboxaldehyde] | 42 | 
3 | C#CCn1ccc(=Nn2cccc2)c2ccc(Cl)cc21 [7-Chloro-1-(2-propynyl)-N-(1H-pyrrol-1-yl)-4(1H)-quinolinimine] | 48 | 
4 | CCN(CC)Cc1cccn1Nc1ccnc2cc(Cl)ccc12 [7-Chloro-N-(2-diethylaminomethyl-1H-pyrrol-1-yl)-4-quinolinamine] | 55 | 
5 | Clc1ccc2c(Nn3cccc3CN3CCCCC3)ccnc2c1 [7-Chloro-N-[2-(1-piperidinyl)methyl-1H-pyrrol-1-yl]-4-quinolinamine] | 35 | 
6 | CCCN(c1ccnc2cc(Cl)ccc12)n1cccc1.O=C(O)/C=C\C(=O)O [7-Chloro-N-propyl-N-(1H-pyrrol-1-yl)-4-quinolinamine maleate] | 42 | % of Animals with Scopolamine Induced Memory Deficit Reversal ([2]; 0.31 mg/kg of body weight): 20%
7 | c1ccc2c(c1)ccn2Nc1ccnc2ccccc12 [N-(1H-Indol-1-yl)-4-quinolinamine maleate] | 32 | 
8 | Cl.c1ccc2c(Nn3cccc3)c3c(nc2c1)CCCC3 [N-(1H-Pyrrol-1-yl)-1,2,3,4-tetrahydro-9-acridinamine hydrochloride] |  | % of Animals with Scopolamine Induced Memory Deficit Reversal ([2]; 0.63 mg/kg of body weight): 20%; inhibition in vivo at 20 mg/kg [1]: 43%
9 | Cl.c1ccc2c(Nn3cccc3)ccnc2c1 [N-(1H-Pyrrol-1-yl)-4-quinolinamine hydrochloride] | 26 | % of Animals with Scopolamine Induced Memory Deficit Reversal ([2]; 0.16 mg/kg of body weight): 47%
10 | Cl.FC(F)(F)c1ccc2c(Nn3cccc3)ccnc2c1 [N-(1H-Pyrrol-1-yl)-7-trifluoromethyl-4-quinolinamine hydrochloride] | 48 | % of Animals with Scopolamine Induced Memory Deficit Reversal ([2]; 1.25 mg/kg of body weight): 40%
11 | Cc1cn(Nc2ccnc3ccccc23)c2ccccc12 [N-(3-Methyl-1H-indol-1-yl)-4-quinolinamine hydrochloride] | 44 | 
12 | CCCN(c1c2c(nc3ccccc13)CCCC2)n1cc(C)c2ccccc21 [N-(3-Methyl-1H-indol-1-yl)-N-propyl-1,2,3,4-tetrahydro-9-acridinamine] | 42 | 
13 | c1ccc2c(Nn3c4ccccc4c4ccccc43)ccnc2c1 [N-(4-Quinolinyl)-9H-carbazol-9-amine hydrochloride] | 30 | 
14 | CCCN(c1ccnc2ccccc12)n1cccc1 [N-Propyl-N-(1H-pyrrol-1-yl)-4-quinolinamine] | 33 | % of Animals with Scopolamine Induced Memory Deficit Reversal ([2]; 0.16 mg/kg of body weight): 33%
15 | CCCN(c1ccnc2ccccc12)n1c2ccccc2c2ccccc21 [N-Propyl-N-(4-quinolinyl)-9H-carbazol-9-amine] | 55 | 
16 | CNC(=O)Oc1ccc2c(c1)[C@]1(C)CCN(C)[C@@H]1N2C [Physostigmine, reference compound] |  | % of Animals with Scopolamine Induced Memory Deficit Reversal ([2]; 0.31 mg/kg of body weight): 20%
17 | Propoxyphene [reference compound] |  | PQW Percent inhibition ([1]; at 3.9 mg/kg, s.c., mice, reference compound): 50%
